Data as given in US11827646B2, “Compounds for treating spinal muscular atrophy” (Hoffmann-La Roche Inc., priority 2014, dated 2023).

What was measured:
[1] = test system: SMN protein in SMA patient fibroblast cells (GM03813); test: SMN protein assay in cultured cells (SMN HTRF); assay type: cell-based; details: Homo sapiens, SMA Type 1 patient fibroblasts, 48 hours; for EC (1.5-fold): 7-point concentration curve, 1.5 times SMN protein vs vehicle, read-out: EC1.5x SMN protein (EC1.5x concentration for SMN protein expression); for maximal fold induction: fold increase relative to vehicle control, read-out: max. fold increase of SMN protein
Text: The term “EC1.5x concentration for SMN protein expression” (or “EC1.5x SMN protein”) is defined as that concentration of test compound that is effective in producing 1.5 times the amount of SMN protein in an SMA patient fibroblast cell compared to the amount produced from the vehicle control.
The SMN HTRF (homogeneous time resolved fluorescence) assay is used to quantify the level of SMN protein in SMA patient fibroblast cells treated with test compounds. Materials used and respective sources are listed below in Table 4.
Cells are thawed and cultured in DMEM-10% FBS for 72 hours. Cells are trypsinized, counted and re-suspended to a concentration of 25,000 cells/mL in DMEM-10% FBS. The cell suspensions are plated at 5,000 cells per well in a 96 well microtiter plate and incubated for 3 to […]. Test compounds are serially diluted 3.16-fold in 100% DMSO to generate a 7-point concentration curve. 1 μL of test compound solution is transferred to cell-containing wells and cells are incubated for 48 hours in a cell culture incubator (37° C., 5% CO2, […]). Triplicate samples are set up for each test compound concentration. After 48 hours, the supernatant is removed from the wells and 25 μL of the RIPA lysis buffer, containing protease inhibitors, is added to the wells and incubated with shaking at room temperature for 1 hour. 25 μL of the diluent is added and then 35 μL of the resulting lysate is transferred to a 384-well plate, where each well contains 5 μL of the antibody solution (1:100 dilution of anti-SMN d2 and anti-SMN kryptate in SMN reconstitution buffer). The plate is centrifuged for 1 minute to bring the solution to the bottom of the wells, then incubated overnight at room temperature. Fluorescence for each well of the plate at 665 nm and 620 nm is measured on an EnVision multilabel plate reader (Perkin-Elmer).
The normalized fluorescence signal is calculated for each sample, Blank and vehicle control well by dividing the signal at 665 nm by the signal at 620 nm. Normalizing the signal accounts for possible fluorescence quenching due to the matrix effect of the lysate. The ΔF value (a measurement of SMN protein abundance as a percent value) for each sample well is calculated by subtracting the normalized average fluorescence for the Blank control wells from the normalized fluorescence for each sample well, then dividing this difference by the normalized average fluorescence for the Blank control wells and multiplying the resulting value by 100. The ΔF value for each sample well represents the SMN protein abundance from test compound-treated samples. The ΔF value for each sample well is divided by the ΔF value for the vehicle control wells to calculate the fold increase in SMN protein abundance relative to the vehicle control. Table 5 provides EC1.5x concentrations for SMN protein expression that was obtained from the 7-point concentration data generated according to the above procedure for particular compounds of the present invention.
Table 6 provides the maximum fold increase of SMN protein that was obtained from the 7-point concentration data generated according to the above procedure for particular compounds of the present invention

[2] = test system: full length SMN2 minigene mRNA (HEK293H cells stably transfected with SMN2-A minigene); test: SMN2 minigene mRNA splicing RT-qPCR assay in cultured cells; assay type: cell-based; details: Homo sapiens, HEK293-H, 24 hours, 7-point concentration curve, 1.5-fold increase relative to vehicle, read-out: EC1.5x minigene (EC1.5x concentration for production of full length SMN2 minigene mRNA)
Text: The term “EC1.5x concentration for production of full length SMN2 minigene mRNA” (or “EC1.5x minigene”) is defined as that concentration of test compound that 1 s effective m increasing the amount of full length SMN2 minigene mRNA to a level 1.5-fold greater relative to that in vehicle-treated cells.
The reverse transcription-quantitative PCR-based (RT-qPCR) assay is used to quantify the level of the full length SMN2 minigene (referred to herein by the term “FL SMN2mini”) mRNA containing SMN2 exon 7 in a HEK293H cell line stably transfected with said minigene and treated with a test compound. Materials used and respective sources are listed below in Table 1.
The SMN2-A minigene construct was prepared as described in International Patent Application WO2009/151546A1 page 145 paragraph [00400] to page 147 paragraph [00412](incl. FIG. 1 and FIG. 3 therein).
HEK293H cells stably transfected with the SMN2-A minigene construct (10,000 cells/well) are seeded in 200 μL of cell culture medium (DMEM plus 10% FBS, with 200 μg/mL hygromycin) in 96-well flat-bottom plates and the plate is immediately swirled to ensure proper dispersal of cells and the formation of an even monolayer of cells. Cells are allowed to attach for 6 hours. Test compounds are serially diluted 3.16-fold in 100% DMSO to generate a 7-point concentration curve. A solution of test compound (1 μL, 200× in DMSO) is added to each cell-containing well and the plate is incubated for 24 hours in a cell culture incubator (37° C., 5% CO2, 100% relative humidity). 2 replicates are prepared for each test compound concentration. The cells are then lysed in the Cells-To-Ct lysis buffer and the lysate is stored at −80° C.
Full length SMN2-A minigene and GAPDH mRNA are quantified using the primers and probes referenced in Table 2. Primer SMN Forward A (SEQ ID NO.1) hybridizes to a nucleotide sequence in exon 7 (nucleotide 22 to nucleotide 40), primer SMN Reverse A (SEQ ID NO.2) hybridizes to a nucleotide sequence in the coding sequence of Firefly luciferase, SMN Probe A (SEQ ID NO.3) hybridizes to a nucleotide sequence in exon 7 (nucleotide 50 to nucleotide 54) and exon 8 (nucleotide 1 to nucleotide 21). The combination of these three oligonucleotides detects only SMN1 or SMN2 minigenes (RT-qPCR) and will not detect endogenous SMN1 or SMN2 genes.
The SMN forward and reverse primers are used at final concentrations of 0.4 μM. The SMN probe is used at a final concentration of 0.15 μM. The GAPDH primers are used at final concentrations of 0.2 μM and the probe at 0.15 μM.
The SMN2-minigene GAPDH mix (15 μL total volume) is prepared by combining 7.5 μL of 2×RT-PCR buffer, 0.4 μL of 25×RT-PCR enzyme mix, 0.75 μL of 20×GAPDH primer-probe mix, 4.0075 μL of water, 2 μL of 10-fold diluted cell lysate, 0.06 μL of 100 µM SMN forward primer, 0.06 μL of 100 μM SMN reverse primer, and 0.225 μL of 100 μM SMN probe.
PCR is carried out at the following temperatures for the indicated time: Step 1: 48° C. (15 min); Step 2: 95° C. (10 min); Step 3: 95° C. (15 sec); Step 4: 60° C. (1 min); then repeat Steps 3 and 4 for a total of 40 cycles.
Each reaction mixture contains both SMN2-A minigene and GAPDH primers/probe sets (multiplex design), allowing simultaneous measurement of the levels of two transcripts.
The increase in the abundance of the FL SMN2mini mRNA relative to that in cells treated with vehicle control is determined from real-time PCR data using a modified ΔΔCt method (as described in Livak and Schmittgen, Methods, 2001, 25:402-8). The amplification efficiency E is calculated from the slope of the amplification curve for FL SMN2mini and GAPDH individually. The abundance of FL SMN2mini and GAPDH mRNA are then calculated as (1+E)^−Ct, where Ct is the threshold value for each amplicon. The abundance of FL SMN2mini mRNA is normalized to GAPDH mRNA abundance. […]

Q: `Cc1cn2nc(-c3cc(=O)n4cc(N5CC[C@H](N6CCCC6)C5)ccc4n3)cc(C)c2n1` [Example 30, 2-(2,8-dimethylimidazo[1,2-b]pyridazin-6-yl)-7-[(3S)-3-pyrrolidin-1-ylpyrrolidin-1-yl]pyrido[1,2-a]pyrimidin-4-one] was tested. Which EC (1.5-fold) [1] did it give?
A: 0.0136 µM

Q: And the maximal fold induction [1]?
A: 1.84

Q: What about the EC (1.5-fold) [2] of the same compound?
A: 0.003 µM

Q: `Cc1cn2nc(-c3cc(=O)n4cc(N5CCN[C@H](C)C5)ccc4n3)cc(C)c2n1` [Example 9, 2-(2,8-dimethylimidazo[1,2-b]pyridazin-6-yl)-7-[(3R)-3-methylpiperazin-1-yl]pyrido[1,2-a]pyrimidin-4-one] was tested. Which EC (1.5-fold) [1] did it give?
A: 0.0025 µM

Q: And the maximal fold induction [1]?
A: 1.92

Q: And the EC (1.5-fold) [2]?
A: 0.0001 µM

Q: Which EC (1.5-fold) [1] does the source give for `Cc1cn2nc(-c3cc(=O)n4cc(N5CCNC6(CC6)C5)ccc4n3)cc(C)c2n1` [Example 20, 7-(4,7-diazaspiro[2.5]octan-7-yl)-2-(2,8-dimethylimidazo[1,2-b]pyridazin-6-yl)pyrido[1,2-a]pyrimidin-4-one] here?
A: 0.037 µM

Q: What about the maximal fold induction [1] of the same compound?
A: 1.72

Q: And the EC (1.5-fold) [2]?
A: 0.0043 µM

Q: Which results are given for `Cc1cn2nc(-c3cc(=O)n4cc(N5CCN[C@H](C)C5)ccc4n3)ccc2n1` [Example 12, 2-(2-methylimidazo[1,2-b]pyridazin-6-yl)-7-[(3R)-3-methylpiperazin-1-yl]pyrido[1,2-a]pyrimidin-4-one]?
A: EC (1.5-fold) [1]: 0.0075 µM; maximal fold induction [1]: 1.77; EC (1.5-fold) [2]: 0.0012 µM

Q: What does the source list for `Cc1cn2nc(-c3cc(=O)n4cc(N5C[C@@H](C)N[C@@H](C)C5)cc(C)c4n3)ccc2n1` [Example 35, 7-[(3R,5S)-3,5-dimethylpiperazin-1-yl]-9-methyl-2-(2-methylimidazo[1,2-b]pyridazin-6-yl)pyrido[1,2-a]pyrimidin-4-one]?
A: EC (1.5-fold) [1]: 0.0195 µM; maximal fold induction [1]: 1.79; EC (1.5-fold) [2]: 0.0047 µM

Q: Which EC (1.5-fold) [1] does the source give for `Cc1cn2nc(-c3cc(=O)n4cc(N5C[C@H](C)N[C@@H](C)C5)ccc4n3)ccc2n1` [Example 32, 7-[(3S,5S)-3,5-dimethylpiperazin-1-yl]-2-(2-methylimidazo[1,2-b]pyridazin-6-yl)pyrido[1,2-a]pyrimidin-4-one] here?
A: 0.004 µM

Q: What about the maximal fold induction [1] of the same compound?
A: 1.88

Q: And the EC (1.5-fold) [2]?
A: 0.0016 µM

Q: How did the EC (1.5-fold) [1] turn out when `Cc1cn2nc(-c3cc(=O)n4cc(N5CCNC(C)(C)C5)ccc4n3)ccc2n1` [Example 23, 7-(3,3-dimethylpiperazin-1-yl)-2-(2-methylimidazo[1,2-b]pyridazin-6-yl)pyrido[1,2-a]pyrimidin-4-one] was run?
A: 0.0239 µM

Q: And the maximal fold induction [1]?
A: 1.63

Q: And the EC (1.5-fold) [2]?
A: 0.0034 µM

Q: With `Cc1cn2nc(-c3cc(=O)n4cc(N5C[C@@H](C)N[C@@H](C)C5)ccc4n3)cc(C)c2n1` [Example 7, 2-(2,8-dimethylimidazo[1,2-b]pyridazin-6-yl)-7-[(3S,5R)-3,5-dimethylpiperazin-1-yl]pyrido[1,2-a]pyrimidin-4-one] as the compound, how does the EC (1.5-fold) [1] read?
A: 0.0155 µM

Q: What about the maximal fold induction [1] of the same compound?
A: 1.76

Q: What about the EC (1.5-fold) [2] of the same compound?
A: 0.0037 µM

Q: Which EC (1.5-fold) [1] does the source give for `CC[C@@H]1CN(c2ccc3nc(-c4ccc5nc(C)cn5n4)cc(=O)n3c2)CCN1` [Example 39, 7-[(3R)-3-ethylpiperazin-1-yl]-2-(2-methylimidazo[1,2-b]pyridazin-6-yl)pyrido[1,2-a]pyrimidin-4-one] here?
A: 0.0158 µM

Q: What about the maximal fold induction [1] of the same compound?
A: 1.81

Q: What about the EC (1.5-fold) [2] of the same compound?
A: 0.0009 µM

Q: With `Cc1cn2nc(-c3cc(=O)n4cc(N5CCN6CCC[C@@H]6C5)ccc4n3)cc(C)c2n1` [Example 4, 7-[(8aR)-3,4,6,7,8,8a-hexahydro-1H-pyrrolo[1,2-a]pyrazin-2-yl]-2-(2,8-dimethylimidazo[1,2-b]pyridazin-6-yl)pyrido[1,2-a]pyrimidin-4-one] as the compound, how does the EC (1.5-fold) [1] read?
A: 0.0157 µM

Q: And the maximal fold induction [1]?
A: 1.76

Q: And the EC (1.5-fold) [2]?
A: 0.0018 µM

Q: `Cc1cn2nc(-c3cc(=O)n4cc(N5CC[C@@H](N6CCCC6)C5)ccc4n3)ccc2n1` [Example 21, 2-(2-methylimidazo[1,2-b]pyridazin-6-yl)-7-[(3R)-3-pyrrolidin-1-ylpyrrolidin-1-yl]pyrido[1,2-a]pyrimidin-4-one] was tested. Which EC (1.5-fold) [1] did it give?
A: 0.0687 µM

Q: And the maximal fold induction [1]?
A: 1.54

Q: What about the EC (1.5-fold) [2] of the same compound?
A: 0.0096 µM

Q: `Cc1cn2nc(-c3cc(=O)n4cc(N5CCCNCC5)ccc4n3)cc(C)c2n1` [Example 10, 7-(1,4-diazepan-1-yl)-2-(2,8-dimethylimidazo[1,2-b]pyridazin-6-yl)pyrido[1,2-a]pyrimidin-4-one] was tested. Which EC (1.5-fold) [1] did it give?
A: 0.0228 µM

Q: And the maximal fold induction [1]?
A: 1.95

Q: And the EC (1.5-fold) [2]?
A: 0.0064 µM
